Some test systems named below: SF-295; MDA-N; CCRF-CEM; HT-29; IGROV-1; SW-620; SR; HOP-92; OVCAR-8; NCI-H460; U-251; NCI/ADR-RES; UO-31; SK-MEL-28; HOP-62; OVCAR-5; K562; HCT-116; HL-60; T47D.
What all share (experiment): NCI tumour cell line growth inhibition, 48 h

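Step 1: Grow cells in 96-well plates. Step 2: Expose to compound for 48 hours at 5 concentrations. Step 3: Interpolate endpoints linearly; if unreached, use highest concentration. GI50: concentration for 50% inhibition of growth.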 The source made the active and inactive calls. No stated cut-off is given here; in the data, active = GI50 up to about 1.1 µM and inactive = higher.

Turning to `COc1ccc(-c2c(C(=O)Nc3ccccc3)c(-c3ccccc3)n(C3OC(CO)C(O)C(O)C3O)c(=S)c2C#N)cc1` (stereo not given), the GI50 in the experiment with SF-295, in the experiment on MDA-N, with CCRF-CEM, in the experiment with HT-29, in the experiment with IGROV-1 and in the experiment with SW-620 was > 100 µM (inactive) throughout. Also, the GI50 in the experiment on SR, in the experiment with HOP-92, in the experiment with OVCAR-8, in the experiment on NCI-H460, in the experiment on U-251 and in the experiment with NCI/ADR-RES was > 100 µM (inactive) in each case. Further, the GI50 in the experiment on UO-31, in the experiment with SK-MEL-28, with HOP-62, with OVCAR-5, in the experiment with K562 and with HCT-116 was > 100 µM (inactive) each time. In addition, the GI50 with HL-60 was > 100 µM (inactive).

Consider `COC(=O)Cc1c([C@@H]2Nc3ccccc3[C@H]2CC(=O)OC)[nH]c2ccccc12`, for which the GI50 was 22.8 µM (inactive) in the experiment on SF-295; 28.7 µM (inactive) in the experiment on MDA-N; 20.7 µM (inactive) in the experiment on CCRF-CEM; 48.5 µM (inactive) in the experiment on HT-29; 9.79 µM (inactive) with IGROV-1; 46.8 µM (inactive) in the experiment on SW-620. The GI50 with SR was 8.02 µM (inactive); with HOP-92, 45.8 µM (inactive); with OVCAR-8, 33.7 µM (inactive); with NCI-H460 it was 21.1 µM (inactive); in the experiment with U-251, 20.4 µM (inactive); in the experiment with NCI/ADR-RES, 26.9 µM (inactive). Besides, the GI50 in the experiment with UO-31 was 16.6 µM (inactive); in the experiment with SK-MEL-28, 28.3 µM (inactive); in the experiment on HOP-62, 26.9 µM (inactive); in the experiment on OVCAR-5, 27.8 µM (inactive); in the experiment on K562, 11 µM (inactive); in the experiment with HCT-116 it was 38.9 µM (inactive).

Regarding `CC(=O)CC1=C(OC(C)C)C2(OCCO2)C1O` (stereo not given), the GI50 in the experiment on SF-295, in the experiment on MDA-N, in the experiment with CCRF-CEM, with HT-29, in the experiment with IGROV-1 and in the experiment with SW-620 was > 100 µM (inactive) in each case. Further, the GI50 in the experiment on T47D, in the experiment on HOP-92, in the experiment on OVCAR-8, with NCI-H460, in the experiment with U-251 and in the experiment on UO-31 was > 100 µM (inactive) in each case. For the same compound, the GI50 with SK-MEL-28, in the experiment on HOP-62, in the experiment on OVCAR-5, with HCT-116 and with HL-60 was > 100 µM (inactive) in each case.

For the compound `NC(Cc1ccccc1)c1nccs1` (stereo not given), the GI50 with SF-295, in the experiment with MDA-N, in the experiment on CCRF-CEM, in the experiment with HT-29, in the experiment with IGROV-1 and in the experiment on SW-620 was > 100 µM (inactive) in each case. The GI50 in the experiment on SR, with HOP-92, in the experiment with OVCAR-8, in the experiment on U-251, in the experiment with NCI/ADR-RES and in the experiment on UO-31 was > 100 µM (inactive) in each case. The GI50 in the experiment with SK-MEL-28, in the experiment with HOP-62, in the experiment with OVCAR-5, with K562 and in the experiment on HCT-116 was > 100 µM (inactive) throughout.

On to `CCCCC1=CC1(C#N)[N+](=O)[O-]` (stereo not given), for which the GI50 in the experiment with SF-295 was > 100 µM (inactive); with CCRF-CEM, 18.1 µM (inactive); in the experiment with HT-29, > 100 µM (inactive); in the experiment with IGROV-1 it was > 100 µM (inactive); in the experiment with SW-620 it was 31.8 µM (inactive); with SR it was 33.3 µM (inactive). Further, the GI50 was > 100 µM (inactive) in the experiment on T47D; 48.9 µM (inactive) in the experiment on HOP-92; > 100 µM (inactive) in the experiment on OVCAR-8; > 100 µM (inactive) in the experiment with NCI-H460; > 100 µM (inactive) in the experiment with U-251; > 100 µM (inactive) in the experiment on NCI/ADR-RES. The GI50 in the experiment on UO-31 was > 100 µM (inactive); in the experiment on SK-MEL-28 it was > 100 µM (inactive); in the experiment with HOP-62, > 100 µM (inactive); with OVCAR-5, > 100 µM (inactive); with K562, 22.3 µM (inactive); in the experiment on HCT-116, 33.1 µM (inactive). In addition, the GI50 in the experiment on HL-60 was > 10 µM (inactive).

For `c1ccc(/N=C2\c3ccccc3CN2c2ccccn2)nc1`, the GI50 with SF-295 is > 100 µM (inactive); in the experiment on MDA-N, > 100 µM (inactive); in the experiment with HT-29, 34.2 µM (inactive); in the experiment on IGROV-1 it was > 100 µM (inactive); in the experiment on SW-620 it was > 100 µM (inactive); in the experiment on T47D, 17.5 µM (inactive). The GI50 with HOP-92 was 15.7 µM (inactive); with OVCAR-8 it was > 100 µM (inactive); in the experiment with NCI-H460, 89.3 µM (inactive); in the experiment on U-251 it was > 100 µM (inactive); with UO-31, > 100 µM (inactive); with SK-MEL-28 it was > 100 µM (inactive). For the same compound, the GI50 was > 100 µM (inactive) with HOP-62; > 100 µM (inactive) in the experiment on OVCAR-5; 65 µM (inactive) in the experiment with K562; 74.3 µM (inactive) with HCT-116; < 0.01 µM (active) in the experiment on HL-60.

With `Oc1ccc(Cl)cc1C1=NC(NCNC2=NC(c3ccccc3)CC(c3cc(Cl)ccc3O)=N2)=NC(c2ccccc2)C1` (stereo not given), the GI50 in the experiment on SF-295 was 79.1 µM (inactive); with MDA-N, 79.1 µM (inactive); in the experiment on CCRF-CEM, 61 µM (inactive); in the experiment on HT-29, 70.8 µM (inactive); in the experiment with IGROV-1 it was 61.2 µM (inactive); in the experiment on SW-620 it was > 100 µM (inactive). The GI50 in the experiment on SR was 24.9 µM (inactive); in the experiment with HOP-92 it was > 100 µM (inactive); in the experiment on OVCAR-8, > 100 µM (inactive); with NCI-H460, 87.1 µM (inactive); in the experiment on U-251 it was > 100 µM (inactive); in the experiment on NCI/ADR-RES it was 82.4 µM (inactive). The GI50 is 54.2 µM (inactive) with UO-31; > 100 µM (inactive) with SK-MEL-28; > 100 µM (inactive) in the experiment with HOP-62; 44.1 µM (inactive) in the experiment with OVCAR-5; 39 µM (inactive) with K562; 56 µM (inactive) in the experiment on HCT-116. In the experiment on HL-60, the GI50 is > 100 µM (inactive).

Turning to `O=C(O)c1ccccc1/C=C1\Cc2ccc3c(c2C1=O)CCCC3`, the GI50 is 31.6 µM (inactive) with SF-295; 30.4 µM (inactive) in the experiment with CCRF-CEM; 50.6 µM (inactive) in the experiment on HT-29; 31 µM (inactive) in the experiment with IGROV-1; 30.8 µM (inactive) in the experiment with SW-620; 26.8 µM (inactive) in the experiment on SR. Besides, the GI50 with T47D is 19.6 µM (inactive); in the experiment with HOP-92 it was 14.3 µM (inactive); in the experiment with OVCAR-8 it was 68.7 µM (inactive); with NCI-H460, 32 µM (inactive); in the experiment with U-251, 44.7 µM (inactive); in the experiment with NCI/ADR-RES, 32.1 µM (inactive). Further, the GI50 is 63.5 µM (inactive) with UO-31; 39.2 µM (inactive) in the experiment with SK-MEL-28; 49.7 µM (inactive) in the experiment with HOP-62; 73.1 µM (inactive) in the experiment on OVCAR-5; 38 µM (inactive) in the experiment on K562; 30.1 µM (inactive) in the experiment with HCT-116. For the same compound, in the experiment on HL-60, the GI50 was 26.4 µM (inactive).
